According to patent publication US20260232652A1, “COMBINATIONS OF DGK (DIACYLGLYCEROL KINASE) INHIBITORS” (priority 2023, published 2026):
pIC50: −log10 of the molar value.

Target: T1, human DGKzeta (Homo sapiens, UniProt Q13574)
T1 construct: C-terminally FLAG-tagged, recombinant full-length human DGKζ; made in house; host or cells: baculovirus-infected insect cells
Assay: Human DGKzeta kinase activity inhibition assay (ADP-Glo)
Assay type: biochemical
Settings: read-out: IC50 hDGKz
Method: Human diacylglycerol kinase zeta (DGKζ) inhibitory activity of compounds of the present invention was quantified employing the human DGKζ kinase activity assay as described in the following paragraphs. In essence, the enzyme activity was measured by quantification of the adenosine-di-phosphate (ADP) generated as a co-product of the enzyme reaction via the “ADP-Glo™ Kinase Assay” kit from the company Promega. This detection system works as follows: In a first step the adenosine-tri-phosphate (ATP) not consumed in the kinase reaction is quantitatively converted to cyclic adenosine-mono-phosphate (cAMP) employing an adenylate cyclase (“ADP-Glo-reagent”), then the adenylate cyclase is stopped and the ADP generated in the kinase reaction is converted to ATP, which subsequently generates in a luciferase-based reaction a glow-luminescence signal (“Kinase Detection Reagent”).
C-terminally FLAG-tagged, recombinant full-length human DGKζ (inhouse expressed in baculovirus infected insect cells, purified using anti-Flag pulldown and size exclusion chromatography) was used as enzyme. As an alternative, commercially available enzyme by Carnabio can be used. As substrate for the kinase, 1,2-dioleoyl-sn-glycerol, reconstituted in octyl-β-D-glucopyranoside micelles, was used. […] Then 35 volumes of 50 mM MOPS buffer (pH 7.4) were added to yield a solution of 0.28 mM 1,2 dioleoyl-sn-glycerol and 200 mM octyl-β-D-glucopyranoside, which was aliquoted, flash-frozen in liquid nitrogen, and stored at −20° C. until use.
For the assay 50 nl of a 100-fold concentrated solution of the test compound in dimethyl sulfoxide (DMSO, Sigma) was pipetted into either a white 1536-well or a white low-volume 384-well microtiter plate (both Greiner Bio-One, Frickenhausen, Germany). […] The concentration of DGKζ was adjusted depending of the activity of the enzyme lot and was chosen appropriate to have the assay in the linear range, a typical concentration is about 0.1 nM. The reaction was stopped by the addition of 2.5 μL of “ADP-Glo-reagent” (1 to 1.5 diluted with water) and the resulting mixture was incubated at 22° C. for 1 h to convert the ATP not consumed in the kinase reaction completely to cAMP. […] The amount of emitted light was taken as a measure for the amount of ADP generated and thereby for the activity of the DGKζ.

T1 sequence (Q13574 whole entry): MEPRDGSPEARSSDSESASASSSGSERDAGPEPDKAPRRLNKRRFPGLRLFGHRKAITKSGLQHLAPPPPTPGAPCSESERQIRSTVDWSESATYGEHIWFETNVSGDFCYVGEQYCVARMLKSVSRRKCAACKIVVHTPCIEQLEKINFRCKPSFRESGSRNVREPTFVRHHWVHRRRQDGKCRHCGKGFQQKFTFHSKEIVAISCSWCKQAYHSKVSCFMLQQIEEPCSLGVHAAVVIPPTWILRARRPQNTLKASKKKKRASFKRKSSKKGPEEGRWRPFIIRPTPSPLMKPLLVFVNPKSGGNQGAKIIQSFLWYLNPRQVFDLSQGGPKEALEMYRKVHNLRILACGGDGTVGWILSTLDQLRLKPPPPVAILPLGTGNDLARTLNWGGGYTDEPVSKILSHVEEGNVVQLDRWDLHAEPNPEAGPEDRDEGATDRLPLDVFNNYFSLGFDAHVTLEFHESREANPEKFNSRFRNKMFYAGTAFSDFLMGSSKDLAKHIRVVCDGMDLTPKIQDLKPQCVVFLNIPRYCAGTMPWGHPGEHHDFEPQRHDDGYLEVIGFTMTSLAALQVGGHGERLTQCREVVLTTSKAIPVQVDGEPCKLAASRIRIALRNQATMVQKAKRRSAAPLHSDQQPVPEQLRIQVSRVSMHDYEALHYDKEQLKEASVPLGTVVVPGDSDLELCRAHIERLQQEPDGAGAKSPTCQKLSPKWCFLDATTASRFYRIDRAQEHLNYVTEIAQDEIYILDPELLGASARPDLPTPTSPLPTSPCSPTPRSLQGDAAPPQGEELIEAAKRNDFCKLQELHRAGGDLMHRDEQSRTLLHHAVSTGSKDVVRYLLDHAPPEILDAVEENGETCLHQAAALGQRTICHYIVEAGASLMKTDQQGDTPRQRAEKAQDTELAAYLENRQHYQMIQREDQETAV

- pIC50: 4.76
Compound: Cc1ccc2oc(C3CCN(c4c(C(N)=O)c(=O)n(C)c5ccc(F)cc45)CC3)nc2c1 [DGKalpha inhibitor A, 6-fluoro-1-methyl-4-[4-(5-methyl-1,3-benzoxazol-2-yl)piperidin-1-yl]-2-oxo-1,2-dihydroquinoline-3-carboxamide]
